Measurements from patent publication US20240100065A1, “METHODS FOR TREATING RECEPTOR-INTERACTING PROTEIN KINASE 1-MEDIATED DISEASES” (Genzyme Corporation, priority 2022, published 2024).

Assay: Safety and tolerability (TEAEs, PCSAs, laboratory tests) in phase 1 study Parts 1a, 1b, 2
Assay type: in vivo, healthy adult participants (human)
Settings: for ALT increase: Part 1b 10 mg
Protocol: This single ascending dose (SAD) study consisted of three parts: Part 1a, which is a phase 1, randomized, placebo-controlled, double-blind, sequential ascending single dose study; Part 1b, which is phase 1, open-label, sequential single dose study; and Part 2, which is an ascending 14-day repeated oral dose study.
Part 1a evaluated 4 sequential ascending dose levels of Compound 1 under fasted conditions: 10 mg, 20 mg, 30 mg, and 40 mg, each dose per cohort. Participants were fasted overnight for at least 8 hours before the morning dose and 2 hours after dosing.
Part 1b is an open-label study with two single dose levels of Compound 1, previously tested for safety/tolerability in SAD cohorts of Part 1a, were selected (10 mg and 40 mg) and sequentially administered under a fed condition, each dose per cohort. Participants were fasted overnight for at least 8 hours, and then fed with a light breakfast approximately 30 minutes before Compound 1 dosing. In both Part 1a and 1b, all participants received one single dose of treatment.
Part 2 was a randomized, double-blind, placebo-controlled study that evaluated 14-day multiple ascending oral doses of Compound 1 once daily (OD) or twice daily (BID) regimen under fasted conditions: 10 mg QD, 20 mg QD, 15 mg BID, and 20 mg BID. Participants fasted overnight for at least 8 hours before the morning dose and 2 hours after dosing on Day 1 and Day 14. All other morning doses were administered after an overnight fast and approximately 30 minutes before a breakfast snack. Sentinel dosing approach was followed where two of ten participants in each cohort were dosed the first day (n=1, Compound; n=1, placebo) in advance of the full cohort. The remaining 8 participants from each cohort were randomized to receive either Compound or placebo (randomized 7:1) on the following days with at least 48-hour interval from dosing of the sentinel participants, allowing a safety evaluation at the predicted steady state.
Safety and tolerability were assessed by physical examination, neurological examination, monitoring adverse events (AEs) and potentially clinically significant abnormalities (PCSAs) in clinical laboratory tests (hematology, clinical chemistry, and urinalysis), vital signs (body temperature, blood pressure and heart rate), and ECG parameters (heart rate, RR, PR, QRS, QT, QTcF, QTcB intervals) measured in the standard 12-lead ECG or ECGs extracted from 24-hour Holter ECG data.
Safety population included all participants who received at least one dose of study intervention (Compound 1 or placebo). All safety assessments (AEs, laboratory parameters, vital signs) were based on the review of individual values and were summarized using descriptive statistics. Safety analysis was focused on treatment-emergent period, defined as the time from the first investigational medicinal product (IMP) administration up to the end of study visit (included). AEs were coded according to the Medical Dictionary for Regulatory Activities (MedDRA, version 23.1 in Part 1a and Part 1b; version 24 in Part 2). Severity was graded from Grade 1 to 4 according to the Food and Drug Administration (FDA) Guidance for Industry. Number (%) of participants experiencing TEAEs and potentially clinically significant abnormality (PCSAs) in clinical chemistry, vital signs, and ECGs were summarized by dose level group.

CC(C)(C(=O)N1CCOc2c(C#N)cncc2C1)C(F)F [Compound 1, 4-(3,3-difluoro-2,2-dimethyl-propanoyl)-3,5-dihydro-2H-pyrido[3,4-f] [1,4]oxazepine-9-carbonitrile]
TEAE Eye disorders, participants (Part 1a single 40 mg fasted): 0 n | TEAE Fatigue, participants (Part 1a single 40 mg fasted): 0 n | TEAE General disorders and administration site conditions, participants (Part 1a single 40 mg fasted): 1 n | TEAE Headache, participants (Part 1a single 40 mg fasted): 0 n | TEAE Investigations, participants (Part 1a single 40 mg fasted): 0 n | TEAE Keratitis, participants (Part 1a single 40 mg fasted): 0 n | TEAE Medical device site dermatitis, participants (Part 1a single 40 mg fasted): 0 n | TEAE Musculoskeletal and connective tissue disorders, participants (Part 1a single 40 mg fasted): 1 n | TEAE Myalgia, participants (Part 1a single 40 mg fasted): 1 (16.7) n | TEAE Nervous system disorders, participants (Part 1a single 40 mg fasted): 1 n | TEAE Presyncope, participants (Part 1a single 40 mg fasted): 0 n | TEAE Skin and subcutaneous tissue disorders, participants (Part 1a single 40 mg fasted): 1 n | TEAE Skin irritation, participants (Part 1a single 40 mg fasted): 0 n | TEAE Tachycardia, participants (Part 1a single 40 mg fasted): 0 n | TEAE Thrombophlebitis, participants (Part 1a single 40 mg fasted): 0 n | TEAE Vascular disorders, participants (Part 1a single 40 mg fasted): 0 n | TEAE Ventricular extrasystoles, participants (Part 1a single 40 mg fasted): 1 n | TEAE Vessel puncture site hypoaesthesia, participants (Part 1a single 40 mg fasted): 1 n | TEAE Vessel puncture site pain, participants (Part 1a single 40 mg fasted): 1 n | PCSAs (hematology, clinical chemistry, vital signs, ECG), relevance (Part 1a, all Compound 1 groups): not clinically relevant | Participants with at least one TEAE (Part 1a, all Compound 1 groups, out of 24): 9 participants | SAEs or AESIs (Part 1a, single 10-40 mg fasted): no SAEs or AESIs | ALT increase (one participant, Day 2): 1.5 fold ULN | ALT increase (one participant, Day 7 (end-of-study visit)): 2.4 fold ULN | Participants with at least one TEAE (Part 1b overall, out of 12): 10 participants | Any Grade ≥3 TEAE, participants (Part 1b single 10 mg fed): 0 n | Any TEAE, participants (Part 1b single 10 mg fed): 4 n | Any treatment-emergent AESI, participants (Part 1b single 10 mg fed): 1 n | Any treatment-emergent SAE, participants (Part 1b single 10 mg fed): 0 n | TEAE Alanine aminotransferase increased, participants (Part 1b single 10 mg fed): 1 n | TEAE Back pain, participants (Part 1b single 10 mg fed): 1 n | TEAE Cerebrospinal fluid leakage, participants (Part 1b single 10 mg fed): 1 n | TEAE Coccydynia, participants (Part 1b single 10 mg fed): 0 n | TEAE Constipation, participants (Part 1b single 10 mg fed): 0 n | TEAE Dizziness, participants (Part 1b single 10 mg fed): 0 n | TEAE Gastrointestinal disorders, participants (Part 1b single 10 mg fed): 1 n | TEAE Headache, participants (Part 1b single 10 mg fed): 3 n | TEAE Investigations, participants (Part 1b single 10 mg fed): 1 n | TEAE Musculoskeletal and connective tissue disorders, participants (Part 1b single 10 mg fed): 1 n | TEAE Nausea, participants (Part 1b single 10 mg fed): 1 n | TEAE Nervous system disorders, participants (Part 1b single 10 mg fed): 4 n | TEAE Polyuria, participants (Part 1b single 10 mg fed): 0 n | TEAE Radiculopathy, participants (Part 1b single 10 mg fed): 0 n | TEAE Renal and urinary disorders, participants (Part 1b single 10 mg fed): 0 n | TEAE Vomiting, participants (Part 1b single 10 mg fed): 1 n | Any Grade ≥3 TEAE, participants (Part 1b single 40 mg fed): 1 n | Any TEAE, participants (Part 1b single 40 mg fed): 6 n | Any treatment-emergent AESI, participants (Part 1b single 40 mg fed): 0 n | Any treatment-emergent SAE, participants (Part 1b single 40 mg fed): 1 n | TEAE Alanine aminotransferase increased, participants (Part 1b single 40 mg fed): 0 n | TEAE Back pain, participants (Part 1b single 40 mg fed): 2 n | TEAE Cerebrospinal fluid leakage, participants (Part 1b single 40 mg fed): 3 (50.0) n | TEAE Coccydynia, participants (Part 1b single 40 mg fed): 1 n | TEAE Constipation, participants (Part 1b single 40 mg fed): 1 n | TEAE Dizziness, participants (Part 1b single 40 mg fed): 1 n | TEAE Gastrointestinal disorders, participants (Part 1b single 40 mg fed): 2 n | TEAE Headache, participants (Part 1b single 40 mg fed): 4 n | TEAE Investigations, participants (Part 1b single 40 mg fed): 0 n | TEAE Musculoskeletal and connective tissue disorders, participants (Part 1b single 40 mg fed): 2 n | TEAE Nausea, participants (Part 1b single 40 mg fed): 1 n | TEAE Nervous system disorders, participants (Part 1b single 40 mg fed): 5 n | TEAE Polyuria, participants (Part 1b single 40 mg fed): 1 n | TEAE Radiculopathy, participants (Part 1b single 40 mg fed): 1 n | TEAE Renal and urinary disorders, participants (Part 1b single 40 mg fed): 1 n | TEAE Vomiting, participants (Part 1b single 40 mg fed): 1 n | PCSAs (vital signs, ECG), relevance (Part 1b, all Compound 1 groups): not clinically relevant | Any Grade ≥3 TEAE, participants (Part 2 10 mg QD 14 days): 0 n | Any TEAE, participants (Part 2 10 mg QD 14 days): 4 n | Any treatment-emergent AESI, participants (Part 2 10 mg QD 14 days): 0 n | Any treatment-emergent SAE, participants (Part 2 10 mg QD 14 days): 0 n | TEAE Nervous system disorders, participants (Part 2 10 mg QD, out of 8): 2 participants | Any Grade ≥3 TEAE, participants (Part 2 15 mg BID 14 days): 0 n | Any TEAE, participants (Part 2 15 mg BID 14 days): 6 n | Any treatment-emergent AESI, participants (Part 2 15 mg BID 14 days): 1 n | Any treatment-emergent SAE, participants (Part 2 15 mg BID 14 days): 0 n | ALT increase (AESI) (Part 2 15 mg BID, one participant, Day 9): 2.29 ULN | ALT increase (AESI), highest (Part 2 15 mg BID, one participant, Day 15, 24 hours post last dosing): 2.71 ULN | TEAE Nervous system disorders, participants (Part 2 15 mg BID, out of 8): 1 participants | Any Grade ≥3 TEAE, participants (Part 2 20 mg BID 14 days): 0 n | Any TEAE, participants (Part 2 20 mg BID 14 days): 4 n | Any treatment-emergent AESI, participants (Part 2 20 mg BID 14 days): 0 n | Any treatment-emergent SAE, participants (Part 2 20 mg BID 14 days): 0 n | TEAE Nervous system disorders, participants (Part 2 20 mg BID, out of 8): 2 participants | Any Grade ≥3 TEAE, participants (Part 2 20 mg QD 14 days): 0 n | Any TEAE, participants (Part 2 20 mg QD 14 days): 3 n | Any treatment-emergent AESI, participants (Part 2 20 mg QD 14 days): 0 n | Any treatment-emergent SAE, participants (Part 2 20 mg QD 14 days): 0 n | TEAE Nervous system disorders, participants (Part 2 20 mg QD, out of 8): 1 participants | SAE and severe TEAE (Grade ≥3) (Part 2, 14-day repeated doses): no serious adverse event (SAE) and no severe treatment-emergent adverse event | PCSAs for vital signs and ECG parameters, relevance (Part 2, all groups): not clinically meaningful | Safety and tolerability, overall (single dose up to 40 mg fasted and fed, up to 20 mg BID for 14 days): safe and well tolerated
